For experiment [1], the target named is T1, human DGKα (Homo sapiens, UniProt P23743).
T1 construct: TVMV protease cleavage site (C); Hexa-His (C); made in house; host or cells: Sf9 insect cells (baculovirus, Bac-to-Bac)
The experiment can be described thus: DGKα LIPGLO assay (extruded liposome substrate), in vitro DGK inhibition. The class given is biochemical. Conditions: liposome (LIPGLO) assay; read-out: DGKa LIPGLO IC50.

Experiment [2] deals with Human venous whole blood. The experiment can be described thus: Human whole blood IFN-γ assay.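 Note: blood from healthy donors exposed to compound for 1 h before stimulation with anti-CD3 and anti-CD28 at 1 µg/mL each, IFN-γ quantified in supernatant by AlphaLISA.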 It is filed as cell-based. Particulars: human whole blood, normalized to 3 μM reference compound with anti-CD3 plus anti-CD28 as 100% activation, read-out: INFg Whole Blood Normalized Agonist EC50.
Experimental: Human Whole Blood IFN-γ Assay
Human venous whole blood (22.5 μL per well), obtained from healthy donors, was pre-treated with compounds for one hour at 37° C. in a humidified 95% air/5% CO2 incubator. The blood was stimulated with 2.5 μL anti-human CD3 and anti-CD28 mAb at a final concentration of 1 μg/mL each for 24 hours at 37° C. IFN-γ in the supernatants was measured using AlphLISA kit (Cat # AL217).
Experiment [3] concerns the target T2, human DGKζ (Homo sapiens, UniProt Q13574).
T2 construct: TVMV protease cleavage site (C); Hexa-His (C); made in house; host or cells: Sf9 insect cells (baculovirus, Bac-to-Bac)
The experiment can be described thus: DGKζ LIPGLO assay (extruded liposome substrate), in vitro DGK inhibition. It is filed as biochemical. Particulars: liposome (LIPGLO) assay; read-out: DGKz LIPGLO IC50.

Structures are written as SMILES. Like-named read-outs stand apart in the source and are kept apart here.

T1 sequence (P23743 with tags, fused parts or gaps): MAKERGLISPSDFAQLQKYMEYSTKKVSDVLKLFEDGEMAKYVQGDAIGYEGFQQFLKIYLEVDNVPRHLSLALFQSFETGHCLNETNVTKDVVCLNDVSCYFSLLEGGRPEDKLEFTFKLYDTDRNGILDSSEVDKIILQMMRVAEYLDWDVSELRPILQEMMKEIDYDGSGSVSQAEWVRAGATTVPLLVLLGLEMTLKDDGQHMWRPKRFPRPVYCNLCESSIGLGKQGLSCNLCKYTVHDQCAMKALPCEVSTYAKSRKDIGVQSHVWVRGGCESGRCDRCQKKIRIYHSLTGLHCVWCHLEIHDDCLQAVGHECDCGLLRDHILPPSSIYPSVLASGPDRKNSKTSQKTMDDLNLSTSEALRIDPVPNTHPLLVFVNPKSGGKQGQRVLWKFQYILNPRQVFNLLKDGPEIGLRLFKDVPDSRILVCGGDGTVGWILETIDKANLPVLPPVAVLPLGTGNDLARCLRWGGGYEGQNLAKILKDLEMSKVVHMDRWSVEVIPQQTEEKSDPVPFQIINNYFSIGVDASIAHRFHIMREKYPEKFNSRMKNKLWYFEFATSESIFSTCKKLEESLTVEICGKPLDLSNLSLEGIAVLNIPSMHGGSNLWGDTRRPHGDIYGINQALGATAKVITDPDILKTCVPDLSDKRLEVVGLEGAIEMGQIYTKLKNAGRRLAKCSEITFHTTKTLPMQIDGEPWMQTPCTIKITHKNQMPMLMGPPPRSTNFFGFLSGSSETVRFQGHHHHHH
T2 sequence (Q13574 with tags, fused parts or gaps isoform Q13574-4): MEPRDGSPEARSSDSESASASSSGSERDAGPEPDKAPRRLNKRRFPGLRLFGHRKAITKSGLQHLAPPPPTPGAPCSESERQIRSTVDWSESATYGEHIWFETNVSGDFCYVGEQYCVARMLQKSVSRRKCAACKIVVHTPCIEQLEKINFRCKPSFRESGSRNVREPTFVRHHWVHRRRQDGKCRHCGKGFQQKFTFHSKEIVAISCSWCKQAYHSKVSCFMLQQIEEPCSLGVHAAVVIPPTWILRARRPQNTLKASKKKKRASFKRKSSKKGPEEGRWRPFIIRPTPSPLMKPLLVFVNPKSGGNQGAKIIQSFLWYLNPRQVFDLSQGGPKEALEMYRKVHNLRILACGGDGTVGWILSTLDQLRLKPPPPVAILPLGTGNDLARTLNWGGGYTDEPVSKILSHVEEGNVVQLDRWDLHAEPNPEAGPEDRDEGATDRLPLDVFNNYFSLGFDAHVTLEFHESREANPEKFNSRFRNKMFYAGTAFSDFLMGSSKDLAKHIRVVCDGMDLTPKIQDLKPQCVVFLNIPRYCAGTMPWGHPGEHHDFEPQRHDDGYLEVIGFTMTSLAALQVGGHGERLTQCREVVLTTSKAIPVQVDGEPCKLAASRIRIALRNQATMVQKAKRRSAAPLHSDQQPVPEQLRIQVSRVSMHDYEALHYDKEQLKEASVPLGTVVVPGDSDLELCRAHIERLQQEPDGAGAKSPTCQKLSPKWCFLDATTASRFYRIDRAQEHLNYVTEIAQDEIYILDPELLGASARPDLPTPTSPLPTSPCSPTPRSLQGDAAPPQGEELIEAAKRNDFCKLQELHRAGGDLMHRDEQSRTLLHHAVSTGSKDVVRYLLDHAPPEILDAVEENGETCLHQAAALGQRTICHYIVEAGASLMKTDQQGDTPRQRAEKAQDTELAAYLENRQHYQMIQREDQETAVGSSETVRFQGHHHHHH

Take `C[C@@H]1CN(c2cc(=O)n(C)c3ccc(C#N)nc23)[C@@H](C)CN1Cc1cc(F)c(F)c(F)c1` [Example 1235]: the concentration for half-maximal inhibition (IC50) – broadly, the concentration that gives 50% inhibition – in experiment [1] was determined as 1.1 µM; in experiment [3], 0.63 µM. Further, the EC50 (in general, the midpoint of the concentration-response curve) in experiment [2] (Homo sapiens, 24 h) is 3.3 µM.
`COc1cc(F)c(C(C)N2C[C@H](C)N(c3cc(=O)n(C)c4ccc(C#N)nc34)C[C@H]2C)c(F)c1` (stereo partly drawn) [Example 1242]: the values for the IC50 in experiment [1] and in experiment [3] were 0.2 µM and 0.019 µM, respectively. Also, the EC50 in experiment [2] (Homo sapiens, 24 h) was found to be 0.18 µM.
`COc1cc(F)c(C(C)N2C[C@H](C)N(c3cc(=O)n(C)c4ccc(C#N)nc34)C[C@H]2C)cc1F` (stereo partly drawn) [Example 1244]: the IC50 in experiment [1] came out at 0.66 µM; in experiment [3], 0.03 µM. Further, the EC50 in experiment [2] (Homo sapiens, 24 h) is 0.12 µM.
As to `COc1ccc(C(C)N2C[C@H](C)N(c3cc(=O)n(C)c4ccc(C#N)nc34)C[C@H]2C)cc1C(F)(F)F` (stereo partly drawn) [Example 1249], the IC50 turned out to be 51 µM in experiment [1] and 0.64 µM in experiment [3]. In addition, the EC50 in experiment [2] (Homo sapiens, 24 h) turned out to be 17 µM.
Consider `COc1ccc(C(C)N2C[C@H](C)N(c3cc(=O)n(C)c4ccc(C#N)nc34)C[C@H]2C)cc1C(F)(F)F` (stereo partly drawn) [Example 1250], for which the IC50 in experiment [1] turned out to be 20 µM; in experiment [3], 1.7 µM. Moreover, the EC50 in experiment [2] amounted to 18 µM.
Turning to `CC(c1ccc(C2(C#N)CC2)cc1)N1C[C@H](C)N(c2cc(=O)n(C)c3ccc(C#N)nc23)C[C@H]1C` (stereo partly drawn) [Example 1253], the IC50 in experiment [1] came to 1.9 µM; in experiment [3] it was 0.34 µM. Moreover, the EC50 in experiment [2] (Homo sapiens, 24 h) turned out to be 1.8 µM.
As to `CC(c1ccc(C2(C#N)CC2)cc1)N1C[C@H](C)N(c2cc(=O)n(C)c3ccc(C#N)nc23)C[C@H]1C` (stereo partly drawn) [Example 1254], the IC50 is 1.9 µM in experiment [1] and 0.34 µM in experiment [3]. The EC50 in experiment [2] is 1.8 µM.
In the case of `Cc1cc(C(C)N2C[C@H](C)N(c3cc(=O)n(C)c4ccc(C#N)nc34)C[C@H]2C)ccc1F` (stereo partly drawn) [Example 1255], the IC50 in experiment [1] was 3.1 µM; in experiment [3], 2 µM. Moreover, in experiment [2] (Homo sapiens, 24 h), the EC50 amounted to 2.9 µM.
As for `COCc1ccc(C(C)N2C[C@H](C)N(c3cc(=O)n(C)c4ccc(C#N)nc34)C[C@H]2C)cc1` (stereo partly drawn) [Example 1265], the IC50 came to 0.049 µM in experiment [1] and 0.048 µM in experiment [3]. Moreover, the EC50 in experiment [2] came to 0.12 µM.
As to `CCOc1cc(F)c(CN2C[C@H](C)N(c3cc(=O)n(C)c4ccc(C#N)nc34)C[C@H]2C)c(F)c1` [Example 1275], the IC50 was determined as 0.14 µM in experiment [1] and 0.26 µM in experiment [3]. Besides, in experiment [2] (Homo sapiens, 24 h), the EC50 is 0.19 µM.
For `COc1cc(F)c(CN2C[C@H](C)N(c3cc(=O)n(C)c4ccc(C#N)nc34)C[C@H]2C)c(F)c1` [Example 1276], in that order: 0.071 µM, 0.24 µM and 0.49 µM.
As for `C[C@@H]1CN(c2cc(=O)n(C)c3ccc(C#N)nc23)[C@@H](C)CN1Cc1ccc(P(C)(C)=O)cc1` [Example 1289], the IC50 in experiment [1] is 51 µM; in experiment [3], 130 µM. The concentration for a half-maximal effect (EC50) in experiment [2] (Homo sapiens, 24 h) amounted to 20 µM.
The matching figures for `CC(c1ccc(P(C)(C)=O)cc1)N1C[C@H](C)N(c2cc(=O)n(C)c3ccc(C#N)nc23)C[C@H]1C` (stereo partly drawn) [Example 1290]: 170 µM, 43 µM and 20 µM.
With `CC(c1ccc(P(C)(C)=O)cc1)N1C[C@H](C)N(c2cc(=O)n(C)c3ccc(C#N)nc23)C[C@H]1C` (stereo partly drawn) [Example 1291], the IC50 in experiment [1] was determined as 97 µM; in experiment [3] it was 96 µM. In addition, the EC50 in experiment [2] came to 20 µM.
With `COc1ccc(C(C)N2C[C@H](C)N(c3cc(=O)n(C)c4ccc(C#N)nc34)C[C@H]2C)cc1OCCN1CCOCC1` (stereo partly drawn) [Example 1305], the results for the IC50 in experiment [1] and in experiment [3] were 130 µM and 7.5 µM, respectively. Besides, in experiment [2] (Homo sapiens, 24 h), the EC50 stood at 20 µM.
As to `CC[C@@H]1CN(c2cc(=O)n(C)c3ccc(C#N)nc23)[C@@H](C)CN1Cc1ccc(OC(F)F)cc1` [Example 1330, 8-((2S,5R)-4-(4-(difluoromethoxy)benzyl)-5-ethyl-2-methylpiperazin-1-yl)-5-methyl-6-oxo-5,6-dihydro-1,5-naphthyridine-2-carbonitrile], the IC50 in experiment [1] worked out at 0.044 µM; in experiment [3], 0.38 µM. Further, the EC50 in experiment [2] (Homo sapiens, 24 h) is 1.5 µM.

Source of the values: patent publication US10669272B2, “Substituted naphthyridinone compounds useful as T cell activators” (BRISTOL-MYERS SQUIBB COMPANY, priority 2018, dated 2020).
